# Reference: publication PMC10609854 (Pharmaceuticals, 2023)
# Structures can show the parent of a compound that is named as a salt.
# Columns and labels:
# [1] = system: histamine-induced pruritus; test: histamine-induced pruritus; format: in vivo; conditions: mice; for influence on the antipruritic activity of E153, histamine-induced pruritus: 15 mg/kg given 10 min before E153 (5 mg/kg i.p.)
# Description: (§1) The area (around 2 cm^2) of the nape of mice was shaved at least 2 days prior to experiments. On the day of the experiment, each mouse was individually placed in plastic chambers (15 × 15 × 30 cm). After the 30 min period of habituation, the mice received an intradermal (i.d.) injection of histamine dihydrochloride (10 µmol/site), chloroquine (CQ, 200 µg/site), or SLIGRL-NH2 (40 nmol/site), which were dissolved in physiological saline and administrated at the constant volume of 20 μL. Immediately following the injection, scratching (series of movements considered as a single scratching bout usually consisted of three single scratches) of the injected site by the hind paw was counted for 60 min, 30 min, or 45 min after histamine, CQ, and SLIGRL-NH2 injection, respectively.
# SLIGRL-induced pruritus = test: SLIGRL-induced pruritus; format: in vivo; conditions: mice, 10 mg/kg i.p.; 45 min observation
# Description: as §1
# CQ-induced pruritus = test: chloroquine (CQ)-induced pruritus; format: in vivo, mice; conditions: mice, 10 mg/kg i.p.; 30 min observation
# Description: as §1
# formalin-induced pain = test: formalin test; format: in vivo, mice; conditions: mice; for influence on the analgesic effect of E153, late phase of the formalin test: 15 mg/kg given 10 min before E153 (15 mg/kg i.p.); for duration of the nociceptive response, late phase of the formalin test: single administration alone, 15 mg/kg; for duration of the nociceptive response, acute phase of the formalin test: i.p. 30 min before test, 0–5 min after formalin
# Description: The mice received an intraperitoneal (i.p.) injection of either the test compound or a control solution. After 30 min, a 20 μL injection of a 2.5% formalin solution was administered into the right hind paw. Right after the formalin injection, the animals were individually placed into glass containers and observed for the following 30 min. During specific time intervals (0–5 min, referred to as Phase I, and 15–30 min, referred to as Phase II, post-formalin injection), the time spent by the animals licking or biting the injected paw was recorded..
Structure (SMILES),"influence on the antipruritic activity of E153, histamine-induced pruritus [1]","scratching behavior, histamine-induced pruritus ([1]; administered alone, 15 mg/kg)","influence on the analgesic effect of E153, late phase of the formalin test (formalin-induced pain)","duration of the nociceptive response, late phase of the formalin test (formalin-induced pain)","duration of the nociceptive response, acute phase of the formalin test (formalin-induced pain)",also measured
"COc1ccc(CN(CCN(C)C)c2ccccn2)cc1 [pyrilamine, reference compound]",,,,,,"scratching behavior, histamine-induced pruritus ([1]; i.p. 30 min before i.d. histamine): significantly reduced scratching behavior; scratch bouts, SLIGRL-induced pruritus (SLIGRL-induced pruritus): not effective; number of scratch bouts, CQ-induced pruritus (CQ-induced pruritus): not effective"
"C[C@@H](N)Cc1c[nH]cn1 [RAMH, (R)-(-)-α-methylhistamine]",had no effect,did not alter animal scratching behavior,antagonized the effects of test compound,did not change,,
"c1cc(OCCCN2CCCCC2)ccc1CN1CCCCC1 [JNJ 5207852, 1-[3-[4-(1-piperidinylmethyl)phenoxy]propyl]piperidine hydrochloride]",,,,,lack of activity,"activity in the late phase of the formalin test (formalin-induced pain; 10 mg/kg i.p.): inactive; paw licking and biting behavior, late phase of the formalin test (formalin-induced pain; 15 and 30 mg/kg i.p.): significantly attenuated; nociceptive response, late phase of the formalin test, joint administration (formalin-induced pain; JNJ 5207852 15 mg/kg + S1RA 15 mg/kg i.p., compared to saline): significantly stronger decrease in nociceptive response"
"Cc1cc(OCCN2CCOCC2)nn1-c1ccc2ccccc2c1.Cl [Compound S1RA, 4-[2-[[5-methyl-1-(2-naphthalenyl)1H-pyraol-3-yl]oxy]ethyl]-morpholine hydro-chloride]",,,,,lack of activity,"activity in the late phase of the formalin test (formalin-induced pain; 15 mg/kg i.p.): inactive; paw licking and biting behavior, late phase of the formalin test (formalin-induced pain; 30 mg/kg i.p.): showed activity; nociceptive response, late phase of the formalin test, joint administration (formalin-induced pain; JNJ 5207852 10 mg/kg + S1RA 30 mg/kg i.p.): did not affect the activity of the compounds"
"Cl.O=C(OCCN1CCOCC1)C1(c2ccccc2)CCCCC1 [PRE-084, 2-[4-morpholinethyl]1-phenylcyclohexanecarboxylate hydrochloride]",significant decrease in E153 activity,did not alter animal scratching behavior,antagonized the effects of test compound,did not change,,
